From ChEMBL document CHEMBL3887000, “Inhibitors of the renal outer medullary potassium channel” (2016)

Legend:
[1] = target: T1, ATP-sensitive inward rectifier potassium channel 1 (Homo sapiens, UniProt P48048); experiment: Thallium Flux Assay: The ROMK channel functional thallium flux assay is performed in 384 wells, using the FLIPR-Tetra instrument. HEK-hKir1.1 cells are seeded in Poly-D-Lysine microplates and kept in a 37° C.-10% CO2 incubator overnight. On the day of the experiment, the growth media is replaced with the FluxOR reagent loading buffer and incubated, protected from light, at ambient temperature (23-25° C.) for 90 min. The loading buffer is replaced with assay buffer test compound followed by 30 min incubation at ambient temperature, where the Thallium/Potassium stimulant is added to the microplate. Step Protocol 1. Seed HEK-hKir1.1 cells (50 ul at 20,000 cells/well) in 384-well PDL coated Microplates 2. Allow cells to adhere overnight in humidified 37° C./10% CO2 incubator 3. Completely remove cell growth media from microplate and replace with 25 ul loading buffer 4. Incubate Microplate at room temperature, protected form light, for 90 min 5. Remove loading buffer and replace with 25 ul 1x Assay Buffer±test compound.Â 6. Incubate microplate at room temperature, protected form light, for 30 min 7. At FLIPR-Tetra 384: Add stimulant (Thallium/Potassium) solution to microplate and monitor fluorescence. Excitation=400 nm, Emission=460 & 580 nm. Collect data for 10 min.Â Data Calculation: The fluorescence intensity of wells containing 3 uM of a standard control ROMK inhibitor of the present invention is used to define the ROMK-sensitive component of thallium flux. Fluorescence in the presence of test compounds is normalized to control values to provide % fluorescence change.
T1 sequence (P48048 whole entry): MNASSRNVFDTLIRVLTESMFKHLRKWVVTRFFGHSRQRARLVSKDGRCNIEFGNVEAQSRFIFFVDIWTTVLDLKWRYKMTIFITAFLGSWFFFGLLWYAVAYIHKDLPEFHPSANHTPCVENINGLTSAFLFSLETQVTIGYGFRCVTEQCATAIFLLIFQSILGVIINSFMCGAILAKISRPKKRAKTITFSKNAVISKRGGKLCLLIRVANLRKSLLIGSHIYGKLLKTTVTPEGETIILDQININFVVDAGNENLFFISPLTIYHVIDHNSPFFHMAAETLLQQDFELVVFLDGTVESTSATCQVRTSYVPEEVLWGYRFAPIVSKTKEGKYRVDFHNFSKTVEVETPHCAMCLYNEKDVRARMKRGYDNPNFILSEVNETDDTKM

[2] = target: T1, ATP-sensitive inward rectifier potassium channel 1; experiment: Electrophysiology Assay: Block of Kir1.1 (ROMK1) currents was examined by whole cell voltage clamp (Hamill et. al. Pfluegers Archives 391:85-100 (1981)) using the IonWorks Quattro automated electrophysiology platform (Molecular Devices, Sunnyvale, Calif.). Chinese hamster ovary cells stably expressing Kir1.1 channels were maintained in T-75 flasks in cell culture media in a humidified 10% CO2 incubator at 37° C. Prior to an experiment, Kir1.1 expression was induced by overnight incubation with 1 mM sodium butyrate. On the day of the experiment, cells were dissociated with 2.5 ml of Versene (Invitrogen 15040-066) for approximately 6 minutes at 37° C. and suspended in 10 ml of bath solution containing (in mM): 150 NaCl, 10 KCl, 2.7 CaCl2, 0.5 MgCl2, 5 HEPES, pH 7.4. After centrifugation, the cell pellet was resuspended in approximately 4.0 ml of bath solution and placed in the IonWorks instrument. The intracellular solution consisted of (in mM): 80 K gluconate, 40 KCl, 20 KF, 3.2 MgCl2, 3 EGTA, 5 Hepes, pH 7.4. Electrical access to the cytoplasm was achieved by perforation in 0.13 mg/ml amphotericin B for 4 minutes. Amphotericin B (Sigma A-4888) was prepared as a 40 mg/ml solution in DMSO.; assay type: cell-based

IC50 [1] | IC50 [2] | Structure (SMILES)
402 nM | 62 nM | Cc1c([C@@H](O)CN2CCC3CN(S(=O)(=O)c4ccc(C#N)cc4)CC32)ccc2c1COC2=O (single isomer, unassigned)
1210 nM |  | Cc1c([C@@H](O)CN2CCC3(CC2)CCN(C[C@H](O)c2ccc4c(c2C)COC4=O)C3)ccc2c1COC2=O
 | 39 nM | Cc1c([C@@H](O)CN2C(C)CC3CN(CC(O)c4ccc(C#N)cn4)CC32)ccc2c1COC2=O (single isomer, unassigned)
91 nM | 11 nM | Cc1c([C@@H](O)CN2CCC3(CCCN3C[C@H](O)c3ccc4c(c3C)COC4=O)C2)ccc2c1COC2=O (stereo partly specified)
